The source of these data is US20110152379A1, “COMPOSITION FOR CONTROL OF AGING AND/OR EXTENSION OF LIFE, CONTAINING DAPSONE AS ACTIVE INGREDIENT” (priority 2008, published 2011).

One data set has as its system H2O2. Nature of the data set: Hydrogen peroxide by Amplex Red assay in paraquat-treated C. elegans. As to conditions: 250 mM paraquat for 1 hour; FIG. 11. Type of data set: in vivo.
The subject of a further data set is PKCβ. Kind of data set: PKC phosphorylation induced by PQ, Western blot. The data set is classed as cell-based. As to conditions: human diploid fibroblast; 1 mM PQ; FIG. 28. The method, then: The isolated sample was transferred to a nitrocellulose and analyzed through Western Blot using MS601 (Total OXPHOS Complexes Detection Kit, MitoSciences, containing antibodies against SDH30 subunit of complex II (5 μg/ml), Core2 subunit of complex III (0.2 μg/ml), COXII subunit of complex IV (2 μg/ml), and subunit α of F1-ATPase of complex V (0.2 μg/ml)), PCKpan-p, PCKα/β-p, PKCδ-p (Phospho-PKC antibody Sampler Kit, Cell Signaling Technology), PKC α, PCKβ, PKCδ (Life Technologies), β-Actin (Sigma), and the like. The measurement was performed by using a horseradish […] secondary antibodies (Zymed) and ECL (Pierce). The results were shown through visualizing by using Autoradiographic film (Image Reader, LAS-3000Fujifilm, Japan).
For orientation: In western blotting, separated proteins are transferred to a membrane and probed.

The next data set deals with human diploid fibroblast. Nature of the data set: Survival rate of human diploid fibroblast treated with PQ (CCK-8). The note with it: DDS pretreatment (0.1, 1, 5, 20 and 50 uM) 3 hours, then 1 mM PQ 48 hours; FIG. 23. The method, then: The above cell was cultured by adding Cell Counting Kit-8 for 48 hours and then the survival ability of cell was measured. In addition, DPI (5 uM) was pretreated for 30 minutes and NAC (2 mM) was pretreated for 3 hours, and then 1 mM of PQ was treated as a positive control.
The evaluation of survival rate of cell was performed by using Counting Kit (CCK-8) from Dojindo Laboratory Company (Japan). The human diploid fibroblast was cultured at 96-well plate for 24 hours before treating. […] The absorbance was measured at 450 nm.

Description for H2O2: The effect of dapsone on ROS scavenging was measured by using Amplex Red hydrogen peroxide/peroxygenase detection kit (Molecular Probes, Eugene, Oreg.) [39] that were previously described in order to measure the effect of dapsone on ROS scavenging. Simply put, 150 C. elegans that fed only on PABA or fed on PABA and dapsone was treated with 250 mM of paraquat for 1 hour. 100 C. elegans were adjusted to be 50 ul at 96-well plate and then 50 ul of Amplex Red (200 uM) was added to each well. After maintaining at 22° C. for 90 minutes, the amount of hydrogen peroxide was measured at 540 nm of absorbance by using a plate reader (Tecan, infinite 200).

As for `Nc1ccc(S(=O)(=O)c2ccc(N)cc2)cc1` [DDS, 4,4′-diaminodiphenylsulfone], the “ROS (H2O2) generation by PQ” value with H2O2 is “meaningfully suppresses”. The “PKCβ phosphorylation (activity) increased by PQ” value in the data set on PKCβ is recorded as “reduced”. Also, the “viability of human diploid fibroblast compared with the cell having the cytotoxic of PQ” value in the data set on human diploid fibroblast is on record as “improved”.
